Data on five molecules can be found in patent US20220267309A1, “DIMERIC OR POLYMERIC FORM OF MUTANT IDH INHIBITOR” (EPITAS BIOSCIENCES (SHANGHAI) CO., LTD., priority 2019, published 2022).

What all share (format): cell-based
Experiment [1] addresses T1, IDH1/R132C (Homo sapiens, UniProt O75874, R132C).
T1 construct: the fibrosarcoma cell HT-1080 containing the IDH1/R132C mutation; endogenous in cells; host or cells: HT-1080 fibrosarcoma cells
Briefly: Inhibitory activity against mutant IDH1/R132C at the cellular level (extracellular 2-HG, HT-1080 cells). On the procedure: (§1) 2-Hydroxyglutarate dehydrogenase (2HGDH) can reduce NAD+ to NADH in the presence of 2-HG. The later can be quantitatively detected by diaphorase and its substrate Resazurin.
(§2) The cells were digested with trypsin and seeded in a 96-well plate at a density of 1×10^4 with a medium of 200 μL and cultured in a 37° C. incubator overnight. The next day, the test compound was added to a final concentration of 0.1% for DMSO. […] The protein and other components in the culture medium that may interfere with the results were filtered, and the follow-up method was used to detect the content of 2-HG.
(§3) Extracellular 2-HG Detecting System:
(§4) (1) 50 μL reaction system: reaction buffer (50 mM Tris pH7.5, 100 mM NaCl, 20 mM MgCl2, 0.05% BSA), in which the final concentration of NAD+ was 40 μM, the final concentration of 2HGDH was 20 nM, and the test sample was added to 5 μL of culture medium; the reaction solution was mixed and centrifuged, and the reaction was carried out for 1 hour at 25° C. in the dark;
(§5) Preparation of standard curve of 2-HG: the stock solution of 2-HG was diluted to 20 μM with reaction buffer, and a 2-fold gradient diluting was performed for a total of 6 points. Afterwards the above-mentioned 2-HG was measured according to the extracellular 2-HG detecting system, and a standard curve was calculated and drawn.

The target in experiment [2] is T2, IDH1/R132H (Homo sapiens, UniProt O75874, R132H).
T2 construct: expressed in transfected cells; host or cells: U87MG glioma cells
The experiment can be described thus: Inhibitory activity against mutant IDH1/R132H at the cellular level (extracellular 2-HG, U87MG cells). On the procedure:
as §1, §2, §3, §4, §5

Experiment [3] deals with T3, IDH2/R140Q (Homo sapiens, UniProt P48735, R140Q).
T3 construct: expressed in transfected cells; host or cells: U87MG glioma cells
T3 sequence (P48735 40-452 R140Q): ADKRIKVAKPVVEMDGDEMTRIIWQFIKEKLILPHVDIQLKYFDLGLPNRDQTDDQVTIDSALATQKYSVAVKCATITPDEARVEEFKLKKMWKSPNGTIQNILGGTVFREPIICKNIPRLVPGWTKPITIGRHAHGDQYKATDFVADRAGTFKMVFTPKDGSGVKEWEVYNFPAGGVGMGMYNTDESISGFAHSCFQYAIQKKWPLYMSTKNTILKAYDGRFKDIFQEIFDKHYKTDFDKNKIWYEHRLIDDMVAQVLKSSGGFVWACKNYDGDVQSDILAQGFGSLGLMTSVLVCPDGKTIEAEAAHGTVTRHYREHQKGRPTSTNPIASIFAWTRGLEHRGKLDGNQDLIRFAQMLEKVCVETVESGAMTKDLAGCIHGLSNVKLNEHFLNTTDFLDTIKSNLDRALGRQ
The experiment can be described thus: Inhibitory activity against mutant IDH2/R140Q at the cellular level (extracellular 2-HG, U87MG cells). As to conditions: glioma cell U87MG overexpressing IDH2/R140Q; for IC50: 2-HG in culture medium. On the procedure:
as §1, §2, §3, §4
(2) 25 μL color development system: color development buffer (50 mM Tris pH7.5, 100 mM NaCl, 20 mM MgCl2, 0.05% BSA), in which the final concentration of diaphorase was 36 μg/mL, and the final concentration of resazurin sodium was 3 μM; 25 μL of the above-mentioned color developing solution was added to the 50 μL reaction system in (1), mixed and centrifuged, and the fluorescence value was measured immediately under Ex544/Em590.
as §5
Calculation of Extracellular 2-HG Content:
the fluorescence value obtained in the extracellular 2-HG detecting system was calculated using the 2-HG standard curve to calculate the content of 2-HG in the culture medium, and DMSO was used as a negative control to calculate the compound's inhibition against IDH1/R132H mutation producing the 2-HG activity.
The experimental steps were the same as in Example 7, except that the glioma cell U87MG overexpressing the IDH1/R132H mutation was replaced with the glioma cell U87MG overexpressing the IDH2/R140Q mutation.

Where [4] appears, read: fibrosarcoma cell HT-1080 containing IDH1/R132C, 2-HG in culture medium, read-out: IC50 (nM), inhibitory activity against IDH1/R132C.
Where [5] appears, read: fibrosarcoma cell HT-1080 containing IDH1/R132C, 2-HG in culture medium, read-out: IC50, inhibitory activity against IDH1/R132C.
[6] abbreviates: glioma cell U87MG overexpressing IDH1/R132H, 2-HG in culture medium, read-out: IC50, inhibitory activity against IDH1/R132H.
The mark [7] stands for this setting: glioma cell U87MG overexpressing IDH1/R132H, 24 hours, 2-HG in culture medium, read-out: IC50 (nM), inhibitory activity against IDH1/R132H.

Where two headings read alike, the source gives them in different places.

T2 sequence (O75874 whole entry R132H): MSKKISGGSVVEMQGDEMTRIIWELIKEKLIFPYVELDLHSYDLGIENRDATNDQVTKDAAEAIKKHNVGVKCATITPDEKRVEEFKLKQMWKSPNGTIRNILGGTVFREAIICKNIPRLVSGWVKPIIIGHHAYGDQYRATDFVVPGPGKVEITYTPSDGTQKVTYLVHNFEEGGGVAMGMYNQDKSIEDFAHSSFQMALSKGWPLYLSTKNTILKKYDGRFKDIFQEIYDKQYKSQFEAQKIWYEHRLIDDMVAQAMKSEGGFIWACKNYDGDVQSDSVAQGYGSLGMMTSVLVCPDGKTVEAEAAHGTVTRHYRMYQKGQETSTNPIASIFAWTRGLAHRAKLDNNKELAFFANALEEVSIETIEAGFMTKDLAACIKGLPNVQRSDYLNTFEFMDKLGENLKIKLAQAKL
T1 sequence (O75874 2-414 R132C limits assumed): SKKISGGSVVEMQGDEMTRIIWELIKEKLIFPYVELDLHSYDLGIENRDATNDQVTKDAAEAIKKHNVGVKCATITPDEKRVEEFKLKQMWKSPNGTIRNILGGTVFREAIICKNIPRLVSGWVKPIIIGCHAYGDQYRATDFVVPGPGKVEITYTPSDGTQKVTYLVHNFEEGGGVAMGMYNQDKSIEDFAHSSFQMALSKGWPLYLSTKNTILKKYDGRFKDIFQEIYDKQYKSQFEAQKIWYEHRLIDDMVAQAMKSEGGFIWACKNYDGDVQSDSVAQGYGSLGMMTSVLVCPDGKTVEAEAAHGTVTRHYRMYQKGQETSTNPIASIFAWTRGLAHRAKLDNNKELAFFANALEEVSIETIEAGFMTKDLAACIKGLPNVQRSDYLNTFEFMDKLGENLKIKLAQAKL

As to `CC(C)[C@H]1COC(=O)N1c1ccnc(N[C@@H](C)c2ccccn2)n1` [Ref1, reference compound], the IC50 in experiment [1] is 500 to 10000 nM; in experiment [2], 500 to 10000 nM; in experiment [3], over 20 µM.
As to `CC(C)[C@H]1COC(=O)N1c1ccnc(N[C@@H](C)c2ccc(OCCOCCOCCOc3ccc([C@H](C)Nc4nccc(N5C(=O)OC[C@@H]5C(C)C)n4)nc3)cn2)n1` [Compound 1, (4S,4′S)-3,3′-(2,2′-(((1S,1′S)-(5,5′-(((ethane-1,2-diylbis(oxy))bis(ethane-2,1-diyl))bis(oxy))bis(pyridine-5,2-diyl))bis(ethane-1,1-diyl))bis(azanediyl))bis(pyrimidine-4,2-diyl))bis(4-isopropyloxazolidin-2-one)], the IC50 in experiment [1] (setting [4]) is under 5 nM; in experiment [1] (setting [5]) it was at most 5 nM; in experiment [2] (setting [6]) it was at most 5 nM; in experiment [2] (setting [7]) it was under 5 nM; in experiment [3], over 20 µM. For the same molecule, in experiment [3], the “Inhibition of IDH2/R140Q” value was “did not inhibit”.
Consider `N#Cc1ccnc(N2C(=O)CC[C@H]2C(=O)N(c2cncc(F)c2)[C@H](C(=O)NC2CC(F)(F)C2)c2ccccc2Cl)c1` [AG-120, reference compound], for which the IC50 in experiment [3] was over 20 µM.
On to `CC(C)[C@H]1COC(=O)N1c1ccnc(N[C@@H](C)c2ccc(OCCOCCOCCOCCOc3ccc([C@H](C)Nc4nccc(N5C(=O)OC[C@@H]5C(C)C)n4)nc3)cn2)n1` [Compound 2, (4S,4′S)-3,3′-(2,2′-(((1S,1′S)-(5,5′-((((oxybis(ethane-2,1-diyl))bis(oxy))bis(ethane-2,1-diyl))bis(oxy))bis(pyridine-5,2-diyl))bis(ethane-1,1-diyl))bis(azanediyl))bis(pyrimidine-4,2-diyl))bis(4-isopropyloxazolidin-2-one)], for which the IC50 in experiment [1] (setting [4]) is under 5 nM; in experiment [1] (setting [5]), at most 5 nM; in experiment [2] (setting [6]), at most 5 nM; in experiment [2] (setting [7]), under 5 nM; in experiment [3], over 20 µM. For the same molecule, the “Inhibition of IDH2/R140Q” value in experiment [3] was “did not inhibit”.
The molecule `CC(C)[C@H]1COC(=O)N1c1ccnc(N[C@@H](C)c2ccccc2)n1` [IDH125, reference compound] registered an IC50 in experiment [3] of over 20 µM.
